These results are taken from US10647725B2, “Anti-infective 2-aminothiophenes” (priority 2016, dated 2020).

This assay deals with Mtb strains INH-R1, INH-R2, RIF-R1, RIF-R2, FQ-R1. Description: microbe, parasite or virus in culture. The conditions noted are these: Mycobacterium tuberculosis; read-out: MIC against resistant isolates. In kind it is cell-based.

SMILES strings stand for the structures. Converted amounts (≈) assume the structure as drawn.

With `CCOC(=O)c1c(NC(=O)c2c(F)c(F)c(F)c(F)c2F)sc2c1CCN(CC)C2` [4{3,3,0}, ethyl 6-ethyl-2-(perfluorobenzamido)-4,5,6,7-tetrahydrothieno[2,3-c]pyridine-3-carboxylate], the MIC was in the range of 0.2 to 0.44 µM (≈ 0.0897 to 0.197 µg/mL).
